From ChEMBL document CHEMBL1159075, “The chemical synthesis and antibiotic activity of a diverse library of 2-aminobenzimidazole small molecules against MRSA and multidrug-resistant A. baumannii” (Bioorg Med Chem, 2010)
Converted amounts (≈) assume the structure as drawn.

Legend:
Staphylococcus aureus [1] = experiment: Antibacterial activity against Staphylococcus aureus ATCC 29213 after 16 to 20 hrs by microdilution susceptibility test; assay type: functional
Staphylococcus aureus [2] = experiment: Antibacterial activity against methicillin-resistant Staphylococcus aureus BAA-44 after 16 to 20 hrs by microdilution susceptibility test; assay type: functional
Staphylococcus aureus [3] = experiment: Antibacterial activity against Staphylococcus aureus ATCC 29740 after 16 to 20 hrs by microdilution susceptibility test; assay type: functional
[4] = Toxicity in defibrinated sheep RBC assessed as hemolysis at 25 uM by UV spectrometry; assay type: cell-based, Ovis aries, Erythrocyte; details: defibrinated sheep red blood cells, read-out: Activity
Staphylococcus aureus [5] = experiment: Antibacterial activity against Staphylococcus aureus ATCC 25923 after 16 to 20 hrs by microdilution susceptibility test; assay type: functional
Acinetobacter baumannii [6] = experiment: Antibacterial activity against Acinetobacter baumannii 3304 after 16 to 20 hrs by microdilution susceptibility test; assay type: functional
Acinetobacter baumannii [7] = experiment: Antibacterial activity against Acinetobacter baumannii ATCC 19606 after 16 to 20 hrs by microdilution susceptibility test; assay type: functional; details: ATCC 19606 = CIP 70.34 = JCM 6841
Acinetobacter baumannii [8] = experiment: Antibacterial activity against Acinetobacter baumannii AB0043 after 16 to 20 hrs by microdilution susceptibility test; assay type: functional
Acinetobacter baumannii [9] = experiment: Antibacterial activity against multidrug-resistant Acinetobacter baumannii BAA-1605 after 16 to 20 hrs by microdilution susceptibility test; assay type: functional
Acinetobacter baumannii [10] = experiment: Antibacterial activity against Acinetobacter baumannii UH8407 after 16 to 20 hrs by microdilution susceptibility test; assay type: functional
[11] = Induction of pore-formation in synthetic 1-palmitoyl-2-oleoyl-sn-glycero-3-phosphoglycerol vesicles assessed as dye leakage at 25 uM; assay type: physicochemical
Staphylococcus aureus [12] = experiment: Antibacterial activity against methicillin-resistant Staphylococcus aureus BAA-44 at […] uM after 16 to 20 hrs by microdilution susceptibility test; assay type: functional
[13] = Induction of pore-formation in synthetic 1-palmitoyl-2-oleoyl-sn-glycero-3-phosphoglycerol vesicles assessed as dye leakage at >500 uM; assay type: physicochemical
[14] = Induction of pore-formation in synthetic 1-palmitoyl-2-oleoyl-sn-glycero-3-phosphocholine vesicles assessed as dye leakage at 25 uM; assay type: physicochemical
Staphylococcus aureus [15] = experiment: Ratio of MBC to MIC for Staphylococcus aureus BAA-44 after 16 to 20 hrs by microdilution susceptibility test

Molecule | MIC (Staphylococcus aureus [1]) | MIC (Staphylococcus aureus [2]; Staphylococcus aureus, BAA-44) | MIC (Staphylococcus aureus [3]) | MIC (Staphylococcus aureus [5]) | MIC (Acinetobacter baumannii [6]) | MIC (Acinetobacter baumannii [7]) | MIC (Acinetobacter baumannii [8]) | MIC (Acinetobacter baumannii [9]) | MIC (Acinetobacter baumannii [10]) | other results
CN[C@@H]1[C@H](O[C@H]2[C@H](O[C@H]3[C@H](O)[C@@H](O)[C@H](N=C(N)N)[C@@H](O)[C@@H]3N=C(N)N)O[C@@H](C)[C@]2(O)C=O)O[C@@H](CO)[C@H](O)[C@H]1O [STREPTOMYCIN] | 1.56 µM (≈ 0.907 µg/mL) | > 200 µM | 0.391 µM (≈ 0.227 µg/mL) |  |  |  |  |  |  | 
Nc1nc2cc(NC(=O)c3ccccc3)ccc2[nH]1 |  |  |  |  |  |  |  |  |  | hemolysis at 25 µM [4]: < 1%
CCCCCc1ccc(-c2c[nH]c(N)n2)cc1 |  | 12.5 µM (≈ 2.87 µg/mL) |  |  |  |  |  |  |  | 
CN[C@H](CC(C)C)C(=O)N[C@H]1C(=O)N[C@@H](CC(N)=O)C(=O)N[C@H]2C(=O)N[C@H]3C(=O)N[C@H](C(=O)N[C@H](C(=O)O)c4cc(O)cc(O)c4-c4cc3ccc4O)[C@H](O)c3ccc(c(Cl)c3)Oc3cc2cc(c3O[C@@H]2O[C@H](CO)[C@@H](O)[C@H](O)[C@H]2O[C@H]2C[C@](C)(N)[C@H](O)[C@H](C)O2)Oc2ccc(cc2Cl)[C@H]1O [VANCOMYCIN] | 0.391 µM (≈ 0.567 µg/mL) | 0.391 µM (≈ 0.567 µg/mL) | 0.195 µM (≈ 0.283 µg/mL) | 0.391 µM (≈ 0.567 µg/mL) |  |  |  |  |  | 
[N-]=[N+]=Nc1ccc(C(=O)Nc2ccc3[nH]c(N)nc3c2)cc1 |  | 400 µM (≈ 117 µg/mL) |  |  |  |  |  |  |  | 
Nc1nc2cc(NC(=O)c3ccc(-c4ccccc4)cc3)ccc2[nH]1 | > 400 µM | > 400 µM | > 400 µM | > 400 µM | > 400 µM | > 400 µM | > 400 µM |  |  | 
CC1(C)S[C@@H]2[C@H](NC(=O)[C@H](N)c3ccccc3)C(=O)N2[C@H]1C(=O)O [AMPICILLIN] |  |  |  |  | > 400 µM | > 400 µM | > 400 µM | > 400 µM | > 400 µM | 
Nc1nc2cc(NS(=O)(=O)c3ccc4ccccc4c3)ccc2[nH]1 | 100 µM (≈ 33.8 µg/mL) | 100 µM (≈ 33.8 µg/mL) |  |  |  |  |  |  |  | 
CCCCCc1ccc(C(=O)Nc2ccccc2)cc1 |  | > 400 µM |  |  |  | > 400 µM |  |  |  | 
[N-]=[N+]=NCCc1ccsc1 |  |  |  |  |  | > 400 µM | > 400 µM | > 400 µM | > 400 µM | 
NC[C@H]1O[C@H](O[C@H]2[C@H](O)[C@@H](O[C@H]3O[C@H](CO)[C@@H](O)[C@H](N)[C@H]3O)[C@H](N)C[C@@H]2N)[C@H](N)C[C@@H]1O [TOBRAMYCIN] |  |  |  |  | > 400 µM | 25 µM (≈ 11.7 µg/mL) | 200 µM (≈ 93.5 µg/mL) | 6.25 µM (≈ 2.92 µg/mL) | 200 µM (≈ 93.5 µg/mL) | 
CCCCCCCCCCCC(=O)Nc1ccc2[nH]c(N)nc2c1 | 25 µM (≈ 8.26 µg/mL) | 12.5 µM (≈ 4.13 µg/mL) | 12.5 µM (≈ 4.13 µg/mL) | 50 µM (≈ 16.5 µg/mL) | 12.5 µM (≈ 4.13 µg/mL) | 25 µM (≈ 8.26 µg/mL) | 12.5 µM (≈ 4.13 µg/mL) | 12.5 µM (≈ 4.13 µg/mL) | 25 µM (≈ 8.26 µg/mL) | 
CC(C)(C)c1ccc(C(=O)Nc2ccc3[nH]c(N)nc3c2)cc1 | 50 µM (≈ 15.4 µg/mL) | 50 µM (≈ 15.4 µg/mL) | 50 µM (≈ 15.4 µg/mL) | 100 µM (≈ 30.8 µg/mL) | 100 µM (≈ 30.8 µg/mL) | 100 µM (≈ 30.8 µg/mL) | 50 µM (≈ 15.4 µg/mL) | 100 µM (≈ 30.8 µg/mL) | 100 µM (≈ 30.8 µg/mL) | 
C[C@@H](O)[C@H]1C(=O)N2C(C(=O)O)=C(SCCNC=N)C[C@H]12 [IMIPENEM ANHYDROUS] |  |  |  |  | 200 µM (≈ 59.9 µg/mL) | 0.391 µM (≈ 0.117 µg/mL) | 50 µM (≈ 15 µg/mL) | 50 µM (≈ 15 µg/mL) | 3.12 µM (≈ 0.935 µg/mL) | 
CCCCCCC(=O)Nc1ccc2[nH]c(N)nc2c1 |  |  |  |  | > 400 µM | > 400 µM | 400 µM (≈ 104 µg/mL) | > 400 µM | > 400 µM | 
CN(C)[C@@H]1C(O)=C(C(N)=O)C(=O)[C@@]2(O)C(O)=C3C(=O)c4c(O)cccc4[C@@](C)(O)[C@H]3C[C@@H]12 [TETRACYCLINE] |  |  |  |  | 25 µM (≈ 11.1 µg/mL) | 3.13 µM (≈ 1.39 µg/mL) | 6.25 µM (≈ 2.78 µg/mL) | > 400 µM | > 400 µM | 
GENTAMICIN | 0.391 µM |  | 6.2 µM |  | > 400 µM | 100 µM | 200 µM | > 400 µM | > 400 µM | MIC (Staphylococcus aureus [2]): 200 µM
CCCCCCS(=O)(=O)Nc1ccc2[nH]c(N)nc2c1 | 100 µM (≈ 29.6 µg/mL) | 100 µM (≈ 29.6 µg/mL) | 100 µM (≈ 29.6 µg/mL) |  |  |  |  |  |  | 
COc1cccc(OC)c1C(=O)N[C@@H]1C(=O)N2[C@@H]1SC(C)(C)[C@@H]2C(=O)O [METHICILLIN] | 3.13 µM (≈ 1.19 µg/mL) | > 400 µM |  |  |  |  |  |  |  | 
O=C(O)c1cn(C2CC2)c2cc(N3CCNCC3)c(F)cc2c1=O [CIPROFLOXACIN] | 0.391 µM (≈ 0.13 µg/mL) | 12.5 µM (≈ 4.14 µg/mL) | 0.391 µM (≈ 0.13 µg/mL) |  |  |  |  |  |  | 
CCCCCCCCCC(=O)Nc1ccc2[nH]c(N)nc2c1 | 12.5 µM (≈ 3.78 µg/mL) | 25 µM (≈ 7.56 µg/mL) | 12.5 µM (≈ 3.78 µg/mL) | 25 µM (≈ 7.56 µg/mL) | 25 µM (≈ 7.56 µg/mL) | 25 µM (≈ 7.56 µg/mL) | 25 µM (≈ 7.56 µg/mL) | 25 µM (≈ 7.56 µg/mL) | 25 µM (≈ 7.56 µg/mL) | 
CCCCCc1ccc(C(=O)Nc2ccc3[nH]c(N)nc3c2)cc1.Cl | 12.5 µM | 12.5 µM | 6.25 µM | 12.5 µM | 25 µM | 25 µM | 12.5 µM | 12.5 µM | 25 µM | Activity [11]: 16%; Activity (Staphylococcus aureus [12]): 99.15%; MBC50 (Staphylococcus aureus [2]): 5.88 µM; MBC90 (Staphylococcus aureus [2]): 11.15 µM; MBC (Staphylococcus aureus [2]; Staphylococcus aureus, BAA-44): 25 µM; hemolysis at 25 µM [4]: < 1%; Activity [13]: > 50%; Activity [14]: 9%; Ratio (Staphylococcus aureus [15]): 2
CCCCCCCCCCCCCCCCCC(=O)Nc1ccc2[nH]c(N)nc2c1 |  |  |  |  | > 400 µM | > 400 µM | > 400 µM | > 400 µM | > 400 µM | 
CCCCCCCc1ccc(C(=O)Nc2ccc3[nH]c(N)nc3c2)cc1 | 25 µM (≈ 8.76 µg/mL) | 25 µM (≈ 8.76 µg/mL) | 12.5 µM (≈ 4.38 µg/mL) | 50 µM (≈ 17.5 µg/mL) | 50 µM (≈ 17.5 µg/mL) | 50 µM (≈ 17.5 µg/mL) | 12.5 µM (≈ 4.38 µg/mL) |  |  | 
CCCCc1cn(-c2ccc(C(=O)Nc3ccc4[nH]c(N)nc4c3)cc2)nn1 |  | > 400 µM |  |  |  |  |  |  |  | 
CCCCc1ccc(C(=O)Nc2ccc3[nH]c(N)nc3c2)cc1 | 25 µM (≈ 7.71 µg/mL) | 25 µM (≈ 7.71 µg/mL) | 12.5 µM (≈ 3.85 µg/mL) | 25 µM (≈ 7.71 µg/mL) | 100 µM (≈ 30.8 µg/mL) | 50 µM (≈ 15.4 µg/mL) | 25 µM (≈ 7.71 µg/mL) | 25 µM (≈ 7.71 µg/mL) | 50 µM (≈ 15.4 µg/mL) | 
CCCCCCc1ccc(C(=O)Nc2ccc3[nH]c(N)nc3c2)cc1 | 12.5 µM (≈ 4.21 µg/mL) | 12.5 µM (≈ 4.21 µg/mL) | 6.25 µM (≈ 2.1 µg/mL) | 12.5 µM (≈ 4.21 µg/mL) | 50 µM (≈ 16.8 µg/mL) | 50 µM (≈ 16.8 µg/mL) | 12.5 µM (≈ 4.21 µg/mL) | 12.5 µM (≈ 4.21 µg/mL) | 25 µM (≈ 8.41 µg/mL) | 
CCCCCCCCCCc1cn(-c2ccc(C(=O)Nc3ccc4[nH]c(N)nc4c3)cc2)nn1 |  | > 400 µM |  |  |  |  |  |  |  | 
